From patent US20240254140A1, “COMPOUNDS AND THEIR USE IN THE TREATMENT OF BACTERIAL INFECTION” (Hoffmann-La Roche Inc., priority 2021, published 2024) come the findings set out here.

Values after ≈ are worked out from the molar mass of the structure shown.

The subject of this experiment is Escherichia coli ATCC 25922. The experiment in a line: Minimal Inhibitory Concentration (MIC) determination, broth microdilution. It counts as cell-based. The conditions noted are these: strain Escherichia coli ATCC 25922, broth microdilution per CLSI M07-A10, 18-24 hours at 35±2° C., lowest concentration for complete growth inhibition; for MIC: ATCC25922. The procedure: Minimal Inhibitory Concentration (MIC) Determination:
The MIC of antibacterial compounds against multiple species and strains was determined using the broth microdilution method according to M07-A10 Clinical and Laboratory Standards Institute (CLSI) guidelines, using the appropriate broth medium. In short, the compound plates were prepared by dispensing 100 μL of each stock solution in the first well of a 96 well microtiter plate (MTP) at a concentration 100-fold higher than the final concentration desired in broth. Eleven serial 2-fold dilutions of the highest concentration were made in DMSO for new compounds and in water (or appropriate solution) for reference compounds [2]. 1 μL of each well was transferred in a new MTP, which served as the test plate by subsequent inoculation. This bacterial suspension was prepared from strains that were first sub-cultured on agar plates and incubated for 18-24 hours as appropriate. Following incubation, the inoculum was prepared from isolated colonies and adjusted to 0.5 McFarland turbidity standard (1 to 2×10^8 Colony Forming Units (CFU)/mL) in 0.9% saline. The bacterial suspension was then diluted 1:200 in appropriate sterile medium and within 15 minutes 100 μL/well were dispensed. Negative controls (lack of bacterial cells) and growth control wells (lack of compound) were included in all plates. MTPs were incubated for 18-24 hours at 35±2° C. in ambient air. The MIC value of each compound, expressed as μg/mL, was determined as the lowest concentration required for complete growth inhibition (no visible growth). • [1] CLSI (2015) Methods for dilution antimicrobial susceptibility tests for bacteria that grow aerobically; Approved Standard, Tenth Edition. CLSI Document M7-A10 (ISBN 1-56238-987-4). Wayne, PA: Clinical and Laboratory Standards Institute, 19087, USA. • [2] CLSI (2017) Performance Standards for Antimicrobial Susceptibility Testing; Twenty-Fifth Informational Supplement. CLSI Document M100-S27, CLSI, Wayne, Pennsylvania 19087, USA.
Table 1 provides the Minimal Inhibitory Concentrations (MIC) in micrograms per millilitre of the compounds of present invention obtained against the strain Escherichia coli ATCC 25922.

Molecule `C[C@H](C(=O)Nc1cc(F)c2c(c1)CC(CNCC[C@H]1CN(c3cnc4c(n3)NC(=O)CO4)C(=O)O1)C2)N(C)C` (single isomer, unassigned) [Example 68] returned an MIC of 0.125 µg/mL (≈ 0.231 µM). In the case of `C[C@H](C(=O)Nc1cc(F)c2c(c1)CC(CNCC[C@H]1CN(c3cnc4c(n3)NC(=O)CO4)C(=O)O1)C2)N(C)C` (single isomer, unassigned) [Example 69], the “Escherichia coli growth inhibition MIC” value came to 0.125 µg/mL. `C[C@@]1(C(=O)Nc2cc(F)c3c(c2)CC(CN2CCC4(CC2)CN(c2cnc5c(n2)NC(=O)CO5)C(=O)O4)C3)C[C@@H](O)CN1` (single isomer, unassigned) [Example 72]: the MIC came to 0.5 µg/mL (≈ 0.839 µM).

In the case of `C[C@@]1(C(=O)Nc2cc(F)c3c(c2)CC(CN2CCC4(CC2)CN(c2cnc5c(n2)NC(=O)CO5)C(=O)O4)C3)C[C@@H](O)CN1` (single isomer, unassigned) [Example 73], the “Escherichia coli growth inhibition MIC” value was 0.5 µg/mL. With `CN(C)CC(=O)Nc1cc(F)c2c(c1)CC(CNCCC1CN(c3cnc4c(n3)NC(=O)CO4)C(=O)O1)C2` (centres unmarked) [Example 1, 2-(Dimethylamino)-N-[7-fluoro-2-[[2-[2-oxo-3-(3-oxo-4H-pyrazino[2,3-b][1,4]oxazin-6-yl)oxazolidin-5-yl]ethylamino]methyl]indan-5-yl]acetamide], the minimal inhibitory concentration (MIC) is 0.125 µg/mL (≈ 0.237 µM).

The molecule `CN(C)C1(C(=O)Nc2cc(F)c3c(c2)CC(CNCCC2CN(c4cnc5c(n4)NC(=O)CO5)C(=O)O2)C3)CC1` (centres unmarked) [Example 2] had an MIC of 1 µg/mL (≈ 1.81 µM).

The molecule `CN(C)C(C)(C)C(=O)Nc1cc(F)c2c(c1)CC(CNCCC1CN(c3cnc4c(n3)NC(=O)CO4)C(=O)O1)C2` (centres unmarked) [Example 3] displayed an MIC of 0.25 µg/mL (≈ 0.45 µM). Consider `C[C@H](C(=O)Nc1cc(F)c2c(c1)CC(CNCCC1CN(c3cnc4c(n3)NC(=O)CO4)C(=O)O1)C2)N(C)C` (stereo partly drawn) [Example 4, (2R)-2-(dimethylamino)-N-[7-fluoro-2-[[2-[2-oxo-3-(3-oxo-4H-pyrazino[2,3-b][1,4]oxazin-6-yl)oxazolidin-5-yl]ethylamino]methyl]indan-5-yl]propanamide], for which the MIC was determined as 0.125 µg/mL (≈ 0.231 µM).

`O=C(CN1CCOCC1)Nc1cc(F)c2c(c1)CC(CNCCC1CN(c3cnc4c(n3)NC(=O)CO4)C(=O)O1)C2` (centres unmarked) [Example 5, N-[7-fluoro-2-[[2-[2-oxo-3-(3-oxo-4H-pyrazino[2,3-b][1,4]oxazin-6-yl)oxazolidin-5-yl]ethylamino]methyl]indan-5-yl]-2-morpholino-acetamide] registered an MIC of 1 µg/mL (≈ 1.76 µM). This MIC lies about 8-fold higher than the previous one. In turn, `CN(C)C(C)(C)C(=O)Nc1cc(F)c2c(c1)CC(CN1CCC3(CC1)CN(c1cnc4c(n1)NC(=O)CO4)C(=O)O3)C2` (centres unmarked) [Example 6] yielded an MIC of 0.25 µg/mL (≈ 0.43 µM). On to `C[C@H](C(=O)Nc1cc(F)c2c(c1)CC(CN1CCC3(CC1)CN(c1cnc4c(n1)NC(=O)CO4)C(=O)O3)C2)N(C)C` (stereo partly drawn) [Example 7, (2R)-2-(dimethylamino)-N-[7-fluoro-2-[[2-oxo-3-(3-oxo-4H-pyrazino[2,3-b][1,4]oxazin-6-yl)-1-oxa-3,8-diazaspiro[4.5]decan-8-yl]methyl]indan-5-yl]propanamide], for which the MIC came out at 0.25 µg/mL (≈ 0.44 µM). Same read-out and setting: the value for `O=C(CN1CCC1)Nc1cc(F)c2c(c1)CC(CNCCC1CN(c3cnc4c(n3)NC(=O)CO4)C(=O)O1)C2` (centres unmarked) [Example 8, 2-(azetidin-1-yl)-N-[7-fluoro-2-[2-[2-oxo-3-(3-oxo-4H-pyrazino[2,3-b][1,4]oxazin-6-yl)oxazolidin-5-yl]ethylaminomethyl]indan-5-yl]acetamide] was 0.125 µg/mL (≈ 0.232 µM). Turning to `C[C@@H](C(=O)Nc1cc(F)c2c(c1)CC(CNCCC1CN(c3cnc4c(n3)NC(=O)CO4)C(=O)O1)C2)N(C)C` (some centres unmarked) [Example 9], the MIC came out at 0.125 µg/mL (≈ 0.231 µM). `CN1CCC[C@H]1C(=O)Nc1cc(F)c2c(c1)CC(CNCCC1CN(c3cnc4c(n3)NC(=O)CO4)C(=O)O1)C2` (stereo partly drawn) [Example 10, (2S)-N-[7-fluoro-2-[[2-[2-oxo-3-(3-oxo-4H-pyrazino[2,3-b][1,4]oxazin-6-yl)oxazolidin-5-yl]ethylamino]methyl]indan-5-yl]-1-methyl-pyrrolidine-2-carboxamide] gave a minimum inhibitory concentration (MIC) of 0.125 µg/mL (≈ 0.226 µM). In turn, `CN(CC(=O)Nc1cc(F)c2c(c1)CC(CNCCC1CN(c3cnc4c(n3)NC(=O)CO4)C(=O)O1)C2)C1COC1` (centres unmarked) [Example 11] registered an MIC of 0.5 µg/mL (≈ 0.878 µM). This MIC is about 4-fold higher than that of the molecule before. The molecule `O=C(CN1CC2CC2C1)Nc1cc(F)c2c(c1)CC(CNCCC1CN(c3cnc4c(n3)NC(=O)CO4)C(=O)O1)C2` (centres unmarked) [Example 12, 2-(3-azabicyclo[3.1.0]hexan-3-yl)-N-[7-fluoro-2-[2-[2-oxo-3-(3-oxo-4H-pyrazino[2,3-b][1,4]oxazin-6-yl)oxazolidin-5-yl]ethylaminomethyl]indan-5-yl]acetamide] had an MIC of 0.125 µg/mL (≈ 0.221 µM).

On to `CN(CC(=O)Nc1cc(F)c2c(c1)CC(CNCCC1CN(c3cnc4c(n3)NC(=O)CO4)C(=O)O1)C2)C1CC1` (centres unmarked) [Example 13], for which the minimum inhibitory concentration (MIC) turned out to be 1 µg/mL (≈ 1.81 µM).

For the molecule `CN1CCC[C@@H]1C(=O)Nc1cc(F)c2c(c1)CC(CNCCC1CN(c3cnc4c(n3)NC(=O)CO4)C(=O)O1)C2` (stereo partly drawn) [Example 14, (2R)-N-[7-fluoro-2-[[2-[2-oxo-3-(3-oxo-4H-pyrazino[2,3-b][1,4]oxazin-6-yl)oxazolidin-5-yl]ethylamino]methyl]indan-5-yl]-1-methyl-pyrrolidine-2-carboxamide], the MIC was determined as 0.125 µg/mL (≈ 0.226 µM). `Cc1ncc(C(=O)Nc2cc(F)c3c(c2)CC(CNCCC2CN(c4cnc5c(n4)NC(=O)CO5)C(=O)O2)C3)o1` (centres unmarked) [Example 15, N-[7-fluoro-2-[[2-[2-oxo-3-(3-oxo-4H-pyrazino[2,3-b][1,4]oxazin-6-yl)oxazolidin-5-yl]ethylamino]methyl]indan-5-yl]-2-methyl-oxazole-5-carboxamide] had an MIC of 0.25 µg/mL (≈ 0.453 µM). With `CC(C(=O)Nc1cc(F)c2c(c1)CC(CNCC[C@@H]1CN(c3cnc4c(n3)NC(=O)CO4)C(=O)O1)C2)N1CCC1` (some centres unmarked) [Example 16], the MIC is 0.125 µg/mL (≈ 0.226 µM). For the molecule `CO[C@@H]1C[C@@H](C(=O)Nc2cc(F)c3c(c2)CC(CNCCC2CN(c4cnc5c(n4)NC(=O)CO5)C(=O)O2)C3)N(C)C1` (stereo partly drawn) [Example 17, (2S,4R)-N-[7-fluoro-2-[[2-[2-oxo-3-(3-oxo-4H-pyrazino[2,3-b][1,4]oxazin-6-yl)oxazolidin-5-yl]ethylamino]methyl]indan-5-yl]-4-methoxy-1-methyl-pyrrolidine-2-carboxamide], the MIC worked out at 1 µg/mL (≈ 1.71 µM). The same measure, in the same setting: the value for `CC(C)(O)C(=O)Nc1cc(F)c2c(c1)CC(CNCCC1CN(c3cnc4c(n3)NC(=O)CO4)C(=O)O1)C2` (centres unmarked) [Example 18, N-[7-fluoro-2-[[2-[2-oxo-3-(3-oxo-4H-pyrazino[2,3-b][1,4]oxazin-6-yl)oxazolidin-5-yl]ethylamino]methyl]indan-5-yl]-2-hydroxy-2-methyl-propanamide] was 0.25 µg/mL (≈ 0.473 µM); that for `CN(C)[C@]1(C(=O)Nc2cc(F)c3c(c2)CC(CNCCC2CN(c4cnc5c(n4)NC(=O)CO5)C(=O)O2)C3)CCOC1` (some centres unmarked) [Example 19] was 2 µg/mL (≈ 3.43 µM); that for `CC(C)(O)C(=O)Nc1cc(C#N)c2c(c1)CC(CNCCC1CN(c3cnc4c(n3)NC(=O)CO4)C(=O)O1)C2` (centres unmarked) [Example 20] was 0.5 µg/mL (≈ 0.934 µM). Consider `CC(C)(O)C(=O)Nc1cc(C#N)c2c(c1)CC(CNCCC1CN(c3ccc4c(n3)NC(=O)CO4)C(=O)O1)C2` (centres unmarked) [Example 21, N-[7-cyano-2-[[2-[2-oxo-3-(3-oxo-4H-pyrido[3,2-b][1,4]oxazin-6-yl)oxazolidin-5-yl]ethylamino]methyl]indan-5-yl]-2-hydroxy-2-methyl-propanamide], for which the minimal inhibitory concentration (MIC) came to 0.5 µg/mL (≈ 0.935 µM). On the same count and under the same terms, then `C[C@H](C(=O)Nc1cc(C#N)c2c(c1)CC(CNCC[C@@H]1CN(c3cnc4c(n3)NC(=O)CO4)C(=O)O1)C2)N(C)C` (stereo partly drawn) [Example 22, (2R)-N-[7-cyano-2-[[2-[(5R)-2-oxo-3-(3-oxo-4H-pyrazino[2,3-b][1,4]oxazin-6-yl)oxazolidin-5-yl]ethylamino]methyl]indan-5-yl]-2-(dimethylamino)propanamide], with 0.125 µg/mL (≈ 0.228 µM).

`C[C@H](C(=O)Nc1ccc2c(c1F)CC(CNCCC1CN(c3cnc4c(n3)NC(=O)CO4)C(=O)O1)C2)N(C)C` (some centres unmarked) [Example 23] had a minimal inhibitory concentration (MIC) of 0.5 µg/mL (≈ 0.923 µM). This MIC lies about 4-fold higher than the previous one. In turn, `Cc1cc(NC(=O)CN(C)C)nc2c1CC(CNCCC1CN(c3cnc4c(n3)NC(=O)CO4)C(=O)O1)C2` (centres unmarked) [Example 24] returned an MIC of 0.5 µg/mL (≈ 0.953 µM). In turn, `Cc1cc(NC(=O)[C@@H](C)N(C)C)nc2c1CC(CNCCC1CN(c3cnc4c(n3)NC(=O)CO4)C(=O)O1)C2` (stereo partly drawn) [Example 25, (2R)-2-(dimethylamino)-N-[4-methyl-6-[[2-[2-oxo-3-(3-oxo-4H-pyrazino[2,3-b][1,4]oxazin-6-yl)oxazolidin-5-yl]ethylamino]methyl]-6,7-dihydro-5H-cyclopenta[b]pyridin-2-yl]propanamide] yielded an MIC of 1 µg/mL (≈ 1.86 µM). Compared with the last molecule, the MIC is about 2-fold higher.
